Test results from patent EP2057188B1 (priority 2006, dated 2008).

Legend:
[1] = type: in vivo, NIH/Swiss mice; conditions: 80 nmol/Kg; AUC240
Description: Gavage (1.5g/kg) was given at t=0. Sample was taken at t=30 min.

[2] = IVGTT duration of action assay, single SC injection; type: in vivo, rat; conditions: compared with 0601GIP3794 (794); @ -120 min
Description: In the typical IVGTT assays the test sample was administered by IV infusion. The IV infusion of sample was initiated at t = -30min and continued through t = 90. IV glucose was given at t = 0. To determine a duration of action using the IVGTT assay, the sample was injected SC as a single injection at one time point indicated (e.g., t = -240, -120, -60 or -30) prior to administration of glucose. IV glucose was given at t = 0.

| Compound | Basal Glucose Lowering at 80 nmol/Kg [1] | Duration In The Rat IVGTT Assay [2] |
| --- | --- | --- |
| CC[C@H](C)[C@H](NC(=O)[C@H](C)NC(=O)[C@H](CCCCN)NC(=O)[C@@H]1CCCN1C(=O)[C@H](CCCCN)NC(=O)[C@H](CCC(N)=O)NC(=O)[C@H](C)NC(=O)[C@H](CC(C)C)NC(=O)[C@H](CC(C)C)NC(=O)[C@H](Cc1c[nH]c2ccccc12)NC(=O)[C@H](CC(N)=O)NC(=O)[C@@H](NC(=O)[C@H](Cc1ccccc1)NC(=O)[C@H](CC(=O)O)NC(=O)[C@H](CCC(N)=O)NC(=O)[C@H](CCC(N)=O)NC(=O)[C@H](Cc1c[nH]cn1)NC(=O)[C@@H](NC(=O)[C@H](CCCCN)NC(=O)[C@H](CC(=O)O)NC(=O)[C@H](CCSC)NC(=O)[C@H](C)NC(=O)[C@@H](NC(=O)[C@H](CO)NC(=O)[C@H](Cc1ccc(O)cc1)NC(=O)[C@H](CC(=O)O)NC(=O)[C@H](CO)NC(=O)[C@@H](NC(=O)[C@H](Cc1ccccc1)NC(=O)[C@@H](NC(=O)CNC(=O)[C@H](CCC(=O)O)NC(=O)[C@@H](C)NC(=O)[C@@H](N)Cc1ccc(O)cc1)[C@@H](C)O)[C@@H](C)CC)[C@@H](C)CC)[C@@H](C)CC)C(C)C)C(=O)N[C@@H](CCCNC(=N)N)C(=O)N[C@@H](Cc1ccc(O)cc1)C(=O)N[C@@H](CO)C(N)=O [0601 GIP48 16] | -9%, AUC240 | <794@-120 min |
| CC[C@H](C)[C@H](NC(=O)[C@H](CO)NC(=O)[C@H](Cc1ccc(O)cc1)NC(=O)[C@H](CC(=O)O)NC(=O)[C@H](CO)NC(=O)[C@@H](NC(=O)[C@H](Cc1ccccc1)NC(=O)[C@@H](NC(=O)CNC(=O)[C@H](CCC(=O)O)NC(=O)[C@@H](C)NC(=O)[C@@H](N)Cc1ccc(O)cc1)[C@@H](C)O)[C@@H](C)CC)C(=O)N[C@@H](C)C(=O)N[C@@H](CCSC)C(=O)N[C@@H](CC(=O)O)C(=O)N[C@@H](CCCCN)C(=O)N[C@H](C(=O)N[C@@H](Cc1c[nH]cn1)C(=O)N[C@@H](CCC(N)=O)C(=O)N[C@@H](CCC(N)=O)C(=O)N[C@@H](CC(=O)O)C(=O)N[C@@H](Cc1ccccc1)C(=O)N[C@H](C(=O)N[C@@H](CC(N)=O)C(=O)N[C@@H](Cc1c[nH]c2ccccc12)C(=O)N[C@@H](CC(C)C)C(=O)N[C@@H](CC(C)C)C(=O)N[C@@H](C)C(=O)N[C@@H](CCC(N)=O)C(=O)N[C@@H](CCCCN)C(=O)N1CCC[C@H]1C(=O)N[C@@H](CCC(N)=O)C(=O)N[C@@H](CCCCN)C(=O)N[C@H](C(=O)N[C@@H](CCCNC(=N)N)C(=O)N[C@@H](Cc1ccc(O)cc1)C(=O)N[C@@H](CO)C(N)=O)[C@@H](C)CC)C(C)C)[C@@H](C)CC [0601 GIP48 53] | -20%, AUC240 | < 794@ -120 min |
| CC[C@H](C)[C@H](NC(=O)[C@H](CCCCN)NC(=O)[C@H](CC(=O)O)NC(=O)[C@H](CC(C)C)NC(=O)[C@H](C)NC(=O)[C@@H](NC(=O)[C@H](CO)NC(=O)[C@H](Cc1ccc(O)cc1)NC(=O)[C@H](CC(=O)O)NC(=O)[C@H](CO)NC(=O)[C@@H](NC(=O)[C@H](Cc1ccccc1)NC(=O)[C@@H](NC(=O)CNC(=O)[C@H](CCC(=O)O)NC(=O)[C@@H](C)NC(=O)[C@H](Cc1ccc(O)cc1)NC(=O)[C@@H](N)CC(C)C)[C@@H](C)O)[C@@H](C)CC)[C@@H](C)CC)C(=O)N[C@@H](C)C(=O)N[C@@H](CCC(N)=O)C(=O)N[C@@H](CCC(N)=O)C(=O)N[C@@H](CCC(=O)O)C(=O)N[C@@H](Cc1ccccc1)C(=O)N[C@H](C(=O)N[C@@H](CC(N)=O)C(=O)N[C@@H](Cc1c[nH]c2ccccc12)C(=O)N[C@@H](CC(C)C)C(=O)N[C@@H](CC(C)C)C(=O)N[C@@H](C)C(=O)N[C@@H](CCC(N)=O)C(=O)N[C@@H](CCCCN)C(=O)N1CCC[C@H]1C(=O)N[C@@H](CCCCN)C(=O)N[C@@H](CCCCN)C(=O)N[C@H](C(=O)N[C@@H](CCCNC(=N)N)C(=O)N[C@@H](Cc1ccc(O)cc1)C(=O)N[C@@H](CO)C(N)=O)[C@@H](C)CC)C(C)C [0601 GIP48 02] | -15%, AUC240 | < 794 @ -120 min |
